Values quoted from earlier work as cited in US6337320B1, “Reparatives for ultraviolet radiation skin damage” (Thione International, Inc., priority 1996, dated 2002).

Experiments:
[1] = tested on: vitamin E deficient chicks
[2] = oral, prolonged periods

What does the source list for `C[Se]CC[C@H](N)C(=O)O` [selenomethionine]?
skin levels of selenium dependent glutathione peroxidase (patients with psoriasis; normal and psoriatic skin): unchanged; increase in blood levels post treatment (patients with psoriasis; psoriasis patients with normal pretreatment selenium blood levels): 40%; number of CD4+T-cells (patients with psoriasis; reticular dermis of the psoriatic lesions): statistically significant increase; protection against acute UV damage to the skin, as measured by the minimal erythema dose (human subjects; eight women, topical lotion 0.002%, 0.02% and 0.05%): effective; plasma levels of selenium (human subjects; volunteers, topical application): remained unchanged; in vivo lipid peroxidation in tissues [1]: inhibits; concentration of selenium in skin in areas of topical application (mice; lotion, topical vs comparable oral doses): greater than those of the experimental animals given comparable oral doses; skin damage by ultraviolet irradiation (inflammation, pigmentation, onset and incidence of skin cancers) (mice; mice treated with selenomethionine, ultraviolet irradiation): significantly less skin damage; selenium toxicity (mice; mouse, in vivo, po): no evidence of selenium toxicity

Which hydrogen peroxide formation (human leukocytes) does the source give for (−)epigallo catechin gallate [EGCG] here?
The hydrogen peroxide formation was “inhibits”.

With `[Se]` [selenium] as the molecule, how does the “dose at which selenium toxicities occur” value [2] read?
The value was > 4000 micrograms per day.
